Results taken from US20170065667A1, “METHODS FOR SYNCHRONIZATION OF ESTROUS CYCLES AND OVULATION FOR FIXED TIME ARTIFICIAL INSEMINATION IN CATTLE” (Parnell Technologies Pty Ltd., priority 2014, published 2017).
Values joined by “and” are separate entries in the source; they are usually repeats but may differ in a detail not shown here. Identical values can stand only once. Like-named read-outs stand apart in the source and are kept apart here.

How the values were obtained:
[1] = test system: lactating Holstein cows; experiment: Experiment 1: CL regression / circulating P4 after one vs. two 2 mL i.m. cloprostenol sodium injections in Double-Ovsynch; format: in vivo, cattle; settings: for CL regression, % of cows: quartiles 2, 3 and 4 combined; for circulating P4 concentrations at 56 hours after the first injection: day of final gonadorelin acetate injection, serum, in ng/mL
Procedure: An experiment was conducted to determine the effectiveness of the exogenous administration of hormones for synchronizing the estrous cycles of lactating dairy cattle and resulting pregnancy rates subsequent to FTAI. A total of 373 lactating Holstein cows (172 primiparous, 201 multiparous) were synchronized with a Double-Ovsynch program comprising a first or presynchronization Ovsynch phase followed by a second Ovsynch phase. All animals were synchronized using a GnRH composition (about 100 mcg of gonadorelin acetate per mL, GONAbreed®, Parnell Technologies Pty Ltd, Alexandria, Australia) and a PGF2α analog composition (about 250 mcg of cloprostenol sodium per mL, estroPLAN®, Parnell Technologies Pty Ltd, Alexandria, Australia). The first Ovsynch phase began at about 51 to about 57 days in milk where the cows received a first 1 mL intramuscular injection of a gonadorelin acetate composition. At about 58 to about 64 days in milk, the cows received a first 2 mL intramuscular injection of a cloprostenol sodium composition. At about 61 to about 67 days in milk, the cows received a second 1 mL intramuscular injection of a gonadorelin acetate composition concluding the first Ovsynch phase. The animals were then synchronized with a second Ovsynch phase comprising an Ovsynch-56 protocol beginning at about 68 to about 74 days in milk where the cows received a third 1 mL intramuscular injection of gonadorelin acetate composition. At about 75 to about 81 days in milk, the animals received a second 2 mL intramuscular injection of a cloprostenol sodium composition. At about 77 to about 83 days in milk (about 56 hours after the second injection of a cloprostenol sodium composition), the animals received a fourth 1 mL intramuscular injection of a gonadorelin acetate composition. And at about 78 to about 84 days in milk (about 16 hours after the fourth injection of the gonadorelin acetate composition), the animals receive AI, concluding the second Ovsynch phase. […] The experimental protocol is shown in the diagram of FIG. 2. Blood samples of the cows were taken at the time of the second injection of the cloprostenol sodium composition (at about 72 hours before FTAI) and at the time of the fourth injection of the gonadorelin acetate composition (at about 16 hours before FTAI). Blood samples were collected from the coccygeal vessels into vacuum tubes. Following collection, the blood samples were placed on ice and transported to a laboratory. After clotting (about 16 hours), samples were centrifuged at 3,000 rpm for 20 minutes and serum was isolated into vials, frozen and stored at −20 Celsius until assayed for P4 concentrations. Progesterone was determined directly from serum using a solid phase radioimmunoassay kit (Coat-A-Count, Siemens Healthcare Diagnostics, Los Angeles, Calif.) with no extraction. […] Statistical analyses were performed with SAS (SAS Institute, 2006). Variables with a binomial distribution, such as P/AI and percentage of animals with CL regression, were analyzed by logistic regression using the LOGISTIC procedure. One-tailed comparisons were utilized throughout the study for comparison of the effect of an additional cloprostenol sodium injection on CL regression and animals pregnant to the FTAI. Continuous variables were analyzed using ANOVA with logistic regression utilized to compare the relationship between circulating P4 and the binomial traits. Animals with ≦2.0 ng/mL P4 on day of PGF were removed from the analysis (n=29; 13 primiparous, 16 multiparous) due to lack of synchronization to the double Ovsynch protocol. Therefore, all analyses were done with a total of 344 lactating dairy cows (n=159 primiparous; n=185 multiparous). Statistical differences were considered significant for P≦0.05 and as a tendency for P≦0.15.

[2] = test system: lactating dairy cows; experiment: Combined analysis of Experiments 1 and 2: effect of second cloprostenol sodium injection on P/AI; format: in vivo, cattle; settings: Experiments 1 and 2 combined
From the text: Experiment 1 and Experiment 2 were done with a similar experimental design and therefore results were combined in order to more thoroughly test the effect of a second cloprostenol sodium injection in the Ovsynch protocol on P/AI. There was no effect of the second PGF on P/AI in primiparous cows (P=0.304). However in multiparous cows, the second cloprostenol sodium injection increased (P=0.046) P/AI by about 12%. This effect of a second cloprostenol sodium injection on P/AI was also observed when all cows were included in the analysis (P=0.042). The final combined analysis of both experiments provided the most statistical power to test our main hypothesis (Table 6). Overall, there was increased (P=0.042) P/AI with a 9.6% relative increase in fertility. As in both experiments, the effect was only statistically detectable in multiparous (P=0.046) and not in primiparous (P=0.304) cows. In our study an effect of parity on fertility was only detected in cows treated with Ovsynch (P=0.04) and not in cows treated with Ovsynch with the second PGF treatment (P=0.17). Future studies should directly test whether parity effects with Ovsynch-type protocols are related primarily to differences in CL regression between parities or reflect other fertility differences related to parity.

[3] = test system: lactating dairy cows; settings: cited from earlier work
[4] = one injection, overall (all cows), P4 <0.5 ng/mL at 56 h
[5] = two injections, Quartile 1, [P4] 2.0-5.4 at first injection
[6] = two injections, overall (all cows), P4 <0.5 ng/mL at 56 h

Compound: O=C(O)CCC/C=C\CC1C(O)CC(O)C1/C=C/C(O)COc1cccc(Cl)c1 (stereo not shown) [cloprostenol sodium]
- percentage of cows with P4 below 0.2 ng/mL at final GnRH ([1]; one injection): 42.0%
- percentage of cows with higher P4 (>0.5 ng/mL) at final GnRH ([1]; one injection): 17.0%
- percentage of cows with lower P4 (0.1 to 0.19) at final GnRH ([1]; one injection): 34.7%
- CL regression, % (n/n) ([1]; one injection, Quartile 1, [P4] 2.0-4.8 at first injection): 66.7% and 66.7 (28/42) %
- CL regression, % (n/n) ([1]; one injection, Quartile 2, [P4] 4.9-6.7): 84.4 (38/45) %
- CL regression, % (n/n) ([1]; one injection, Quartile 3, [P4] 6.8-8.7): 95.5 (42/44) %
- CL regression, % (n/n) ([1]; one injection, Quartile 4, [P4] 8.8-12): 84.4 (38/45) %
- % of cows with complete CL regression ([1]; one injection, multiparous, P4 <0.5 ng/mL at 56 h): 84.4% (81/96)
- % of cows with complete CL regression [1, 4]: 83.0% (146/176)
- % of cows with complete CL regression ([1]; one injection, primiparous, P4 <0.5 ng/mL at 56 h after first injection): 81.2% (65/80)
- CL regression, % of cows ([1]; one injection): 88.1%
- circulating P4 concentrations at 56 hours after the first injection ([1]; single injection): 0.4 ± 0.04
- percentage of cows with P4 below 0.2 ng/mL at final GnRH ([1]; two injections): 60.7%
- percentage of cows with higher P4 (>0.5 ng/mL) at final GnRH ([1]; two injections): 2.4%
- percentage of cows with lower P4 (0.1 to 0.19) at final GnRH ([1]; two injections): 49.4%
- % of cows with complete CL regression ([1]; two injections (second 24 h after first), primiparous, P4 <0.5 ng/mL at 56 h): 97.5% (77/79)
- CL regression, % (n/n) [1, 5]: 95.1% and 95.1 (39/41) %
- CL regression, % (n/n) ([1]; two injections, Quartile 2, [P4] 5.5-7.0): 95.6 (43/45) %
- CL regression, % (n/n) ([1]; two injections, Quartile 3, [P4] 7.1-8.6): 100 (43/43) %
- CL regression, % (n/n) ([1]; two injections, Quartile 4, [P4] 8.7-12): 97.4 (38/39) %
- circulating P4 concentrations at 56 hours after the first injection ([1]; two injections): 0.2 ± 0.05
- % of cows with complete CL regression ([1]; two injections, multiparous, P4 <0.5 ng/mL at 56 h): 96.7% (86/89)
- % of cows with complete CL regression [1, 6]: 97.0% (163/168)
- CL regression, % of cows ([1]; two injections): 97.6%
- increase in P/AI by second cloprostenol sodium injection ([2]; multiparous cows): about 12%
- effect on fertility of increasing the dose ([3]; dose from 500 to 750 μg, 7 day protocol): tended to increase fertility

Compound: prostaglandin F2α [PGF]
- % of cows with complete CL regression [1, 4]: 83%
- % of cows that did not completely regress the CL ([1]; single PGF treatment, all cows): 18%
- % of cows with inadequate CL regression ([1]; single PGF treatment, greater circulating P4 at time of PGF): 11.9%
- % of cows with inadequate CL regression ([1]; single PGF treatment, lower P4 (2.0 to 4.8 ng/mL) at time of PGF): 33.3%
- CL regression, % (n/n) [1, 5]: 95.1%
- % of cows with complete CL regression [1, 6]: 97%
- CL regression, % of cows ([1]; two injections): 97.6%
- effect of the second PGF on P/AI ([2]; primiparous cows): no effect
- improvement in fertility in first service cows, two vs. one PGF2α ([3]; 7 day Ovsynch, not statistically significant): 5.7%
- fertility in first service cows ([3]; one PGF2α treatment, 7 day Ovsynch): 47.0%
- fertility in first service cows ([3]; two PGF2α treatments, 7 day Ovsynch): 52.7%
